Measured values reported in patent publication US10232023B2, “Methods for treatment of and prophylaxis against inflammatory disorders” (THE UNIVERSITY OF UTAH RESEARCH FOUNDATION, priority 2013, dated 2019).

What was measured:
[1] = tested on: PMA-stimulated PMNs; test: Nuclear decondensation (nuclear area) assay; type: cell-based, human; conditions: CRISPP 1 nM, SCR 1 nM, Sivelestat 200 nM; PMA 20 nM, 2 hours; vs PMA alone
Method: Using techniques modified from Papayannopoulos et al., J Cell Biol, 2010, 191: 677-691, nuclear area assays were used for PMA-stimulated PMNs as a surrogate for NET formation. PMNs were stimulated with PMA (20 nM) for 2 hours and then visualized via live cell imaging with a cell permeable DNA dye. Images from 5 randomly selected high power fields were captured and the nuclear area of all PMNs on each visual field was quantitated using IMAGEJ software. Nuclear areas were compared for PMNs stimulated with PMA with PMNs pre-incubated with CRISPP (1 nM), SCR (1 nM), or the NE inhibitor Sivelestat (200 nM). […] Next, immunocytochemical experiments designed to see whether CRISPP is taken up by human PMNs were performed. The CRISPP-F and SCR-F peptides and FLAG-tag specific primary antibodies were used to assess cellular location. […] CRISPP can inhibit nuclear chromatin decondensation, which is consistent with the selective inhibition of NET formation by CRISPP and nNIF. This process may involve inhibition of NE activity.
PMNs were isolated and resuspended to 2×10^6 cells/mL in M-199 media. […] 5 randomly selected high power visual fields per sample were captured via confocal microscopy and analyzed for nuclear area using the cell-permeable, fluorescent DNA dye SYTO Green. The nuclear pixel areas of >100 individual cells per high power field were determined using IMAGE-J software (NIH).

[2] = tested on: NET formation; test: NET formation inhibition (test not described); conditions: no test described
[3] = tested on: LPS-stimulated PMNs; test: NET formation by LPS-stimulated adult human PMNs (live cell imaging, histone H3 release); type: cell-based; conditions: LPS 100 ng/mL; for NET formation by LPS-stimulated PMNs: healthy adult PMNs, peptide/protein pre-incubation 1 hour (1 nM where stated)
[4] = tested on: human PMNs stimulated with phorbol 12-myristate acetate (PMA); conditions: background statement; cited from earlier work
[5] = tested on: PMA-stimulated adult PMNs; test: NET formation by PMA-stimulated adult human PMNs; type: cell-based; conditions: pre-incubation 1 nM, 1 hour; PMA 20 nM
[6] = tested on: Outbred Swiss-Webster mice, E. coli peritonitis; test: Murine E. coli peritonitis: peritoneal fluid and membrane analysis; type: in vivo, mouse
Method: Outbred Swiss-Webster mice were injected intraperitoneally with 4.5×10^7 colony-forming units (cfu) of E. coli±nNIF, CRISPP, or scrambled control peptide (SCR) (10 mg/kg, IP injection) one hour prior to E. coli infection. At the 3 hour time point after infection, 3 mice were sacrificed and the peritoneal fluid and peritoneal tissue were collected and analyzed for leukocyte accumulation, bacteriology, and in vivo NET formation. […] See Fuchs et al., J Cell Biol, 2007, 176: 231-241. The number of E. coli cfu/mL of peritoneal fluid in CRISPP pretreated mice was also determined compared to SCR mice (see FIG. 17C).
Animals were treated with CRISPP (10 mg/kg), nNIF (10 mg/kg), or SCR (10 mg/kg) by i.p. injection 1 hour prior to infection (E. coli, 4.5×10^7 cfu/mouse, i.p. injection) or stimulation (LPS, 25 mg/kg, i.p. injection (SIGMA)). Control mice were injected with saline alone. The mice were sacrificed in a CO2 chamber 3 hours post-infection/stimulation with the peritoneal contents harvested and analyzed. Briefly, the skin of the abdomen was cut open in the midline after thorough disinfection and without injuring the muscle. The peritoneal cavity was lavaged with sterile saline solution ([…]) and analyzed for in vivo NET formation, bacteriology, and leukocyte accumulation. NETs in the peritoneal fluid were qualitatively and quantitatively analyzed using live cell imaging with confocal microscopy and histone release assays. NETs on the inner surface of the peritoneal membrane were assessed quantitatively using live cell imaging followed by standardized grid analysis of 5 randomly selected high power visual fields per tissue sample (IMAGE-J software, NIH). Peritoneal bacterial colony forming units (cfu) counts were quantified by permeabilizing all recovered leukocytes with 0.1% Triton-X 100 for 10 minutes and performing serial dilutions and bacterial cultures on 5% sheep blood agar plates (HARDY DIAGNOSTICS). After a 24-hour incubation, bacterial counts were determined. Total leukocyte counts in the peritoneal lavage were determined in Neubauer chambers using an optical microscope after dilution in Turk's solution (2% acetic acid). Differential leukocyte analysis was performed using a 60× oil immersion objective to assess morphology of cyto-centrifuged cells stained with May-Grunwald-Giemsa dye.

[7] = tested on: PMNs isolated from healthy adult donors; test: PMN chemotaxis, modified Boyden Chamber assay; type: cell-based, human; conditions: 1 nM, one hour pre-incubation; IL-8 2 ng/mL
Method: Chemotaxis by PMNs isolated from healthy adult donors was assessed using a modified Boyden Chamber assay±a one hour pre-incubation […] (1 nM), or SCR (1 nM). Recombinant human IL-8 (2 ng/mL) was used as the chemoattractant. Chemotaxis through a 5 micron filter was determined by counting PMNs in 10 randomly selected high-power fields as previously described in Hill et al., Lancet, 1974, 2: 617-619. In separate experiments, […], or SCR (all at 1 nM) were evaluated for chemoattractant activity using the same system.

[8] = tested on: PMNs isolated from healthy adult donors; test: PMN phagocytosis of E. coli BIOPARTICLES; type: cell-based, human; conditions: 1 nM, 60 minutes pre-incubation, 4 hours
Method: PMNs were isolated from blood of healthy adult donors and resuspended in M-199 at a concentration of 2×10^6 cells/mL. Leukocytes were pre-incubated for 60 minutes under standard conditions with cytochalasin B and […] (1 nM), or SCR (1 nM). Following pre-incubation, PMNs were incubated with 6×10^6 E. coli BIOPARTICLES (E-13231, MOLECULAR PROBES) on a rotator for 4 hours under standard conditions. The PMNs were then washed and resuspended in the starting volume in M-199 before being spun down onto glass coverslips and fixed with 2% paraformaldehyde for 10 minutes and permeabilized with 0.1% Triton-X-100 for 10 minutes. Leukocytes were stained with WGA 555 (INVITROGEN) and TO[…] (MOLECULAR PROBES) and randomly selected high power visual field images were captured using confocal microscopy. IMAGE-J software (NIH) was used to determine the percentage of PMNs that were positive for fluorescently labeled E. coli BIOPARTICLES detected at 488 nm.

[9] = tested on: LPS-stimulated human PMNs; test: Reactive oxygen species generation, dihydrorhodamine assay; type: cell-based; conditions: 1 nM, 1 hour pre-incubation; LPS 100 ng/mL
Method: Human PMNs isolated from healthy adult whole blood were resuspended to a concentration of 2×10^6 cells/mL in M-199 media and pre-incubated±[…] (1 nM) or SCR (1 nM) peptide for 1 hour under standard conditions. The PMNs were then stimulated with LPS (100 ng/mL) for 1 hour, washed, and resuspended with a dihydrorhodamine (7.25 mM; D-632, MOLECULAR PROBES) and catalase (1000 Units/mL; C-40, SIGMA) mixture and incubated at 37° C. for 10 minutes. After incubation, samples were placed at 4° C. and analyzed for ROS-dependent fluorescence using a BECTON-DICKINSON FACSCAN device equipped with CELLQUEST software.

[10] = 10 mg/kg IP pretreatment, vs SCR control

Molecule: CC(C)(C)C(=O)Oc1ccc(S(=O)(=O)Nc2ccccc2C(=O)NCC(=O)O)cc1 [Sivelestat, reference compound]
- Nuclear area of PMA-stimulated PMNs [1]: significant decrease in nuclear area

Molecule: A1ATm^358: cleavage fragment of full length A1AT (SEQ ID NO:3), an nNIF-related peptide (PMSIPPEVKFNKPFVFLMIEQNTKSPLFMGKVVNPTQK; homo sapiens)
- NET formation [2]: inhibit NET formation

Molecule: alpha 1-antitrypsin [A1AT]
- NET formation by LPS-stimulated PMNs [3]: failed to inhibit NET formation
- NET formation by LPS-stimulated PMNs, recombinant AAT in nNIF-depleted cord blood plasma ([3]; rAAT (1 nM) added to nNIF-depleted cord blood plasma, listed as recombinant full length A1AT): did not inhibit NET formation
- NET formation in PMA-stimulated human PMNs [4]: does not inhibit NET formation

Molecule: neonatal NET-Inhibitory Factor (KAVLTIDEKGTEAAGAMFLEAIPMSIPPEVKFNKPFVFLMIEQNTKSPLFMGKVVNPTQK; listed as Homo sapiens) [nNIF]
- NET formation by LPS-stimulated PMNs [3]: significantly inhibited NET formation
- NET formation by PMA-stimulated PMNs [5]: significantly inhibited NET formation
- NET formation by histone H3 release assay of the peritoneal fluid [6, 10]: significant quantitative decrease
- NET formation in the peritoneal fluid (live cell imaging) [6, 10]: qualitative decrease
- Peritoneal membrane-associated NET formation ([6]; freshly resected peritoneal membrane, live cell imaging, standardized grid): qualitative and quantitative decrease
- PMN chemotaxis [7]: did not significantly inhibit
- PMN phagocytosis [8]: did not significantly inhibit
- Reactive oxygen species generation [9]: did not significantly inhibit

B1: recombinant serpin B1: serine protease inhibitor expressed as a cytoplasmic protein by human PMNs (protein, UniProt P30740 1-379, looked up)
Leukocyte elastase inhibitor: MEQLSSANTRFALDLFLALSENNPAGNIFISPFSISSAMAMVFLGTRGNTAAQLSKTFHFNTVEEVHSRFQSLNADINKRGASYILKLANRLYGEKTYNFLPEFLVSTQKTYGADLASVDFQHASEDARKTINQWVKGQTEGKIPELLASGMVDNMTKLVLVNAIYFKGNWKDKFMKEATTNAPFRLNKKDRKTVKMMYQKKKFAYGYIEDLKCRVLELPYQGEELSMVILLPDDIEDESTGLKKIEEQLTLEKLHEWTKPENLDFIEVNVSLPRFKLEESYTLNSDLARLGVQDLFNSSKADLSGMSGARDIFISKIVHKSFVEVNEEGTEAAAATAGIATFCMLMPEENFTADHPFLFFIRHNSSGSILFLGRFSSP
- NET formation in PMA-stimulated human PMNs [4]: inhibits NET formation
